This note sets out measurements from ChEMBL document CHEMBL6134788, “Development of naphthalimide hydrazide derivatives as potent antibacterial agents against carbapenem-resistant A. baumannii” (RSC Med Chem, 2024).

Converted amounts (≈) assume the structure as drawn. A value given as a limit tells only on which side of the number the result lay.

Series [1] deals with Acinetobacter baumannii. The series is described as follows: Antibacterial activity against Acinetobacter baumannii assessed as inhibition of bacterial growth by CLSI protocol based assay. Type of series: functional.
Series [2] deals with Acinetobacter baumannii. The series is described as follows: Antibacterial activity against Acinetobacter baumannii assessed as inhibition of bacterial growth by twofold serial dilution method. Type of series: functional.
The test system of series [3] is Acinetobacter baumannii. The series is described as follows: Antibacterial activity against Acinetobacter baumannii. Format: functional.
In series [4] the test system is Acinetobacter baumannii. The series is described as follows: Antibacterial activity against multi-drug resistant Acinetobacter baumannii clinical isolate 1 assessed as inhibition of bacterial growth incubated for 16 to 18 hrs by CLSI protocol based method. Format: functional. The note with it: time 16-18 hrs, read-out: MIC100.
Series [5] deals with Acinetobacter baumannii. The series can be described thus: Antibacterial activity against multi-drug resistant Acinetobacter baumannii Naval-18 assessed as inhibition of bacterial growth incubated for 16 to 18 hrs by CLSI protocol based method. Type of series: functional. The note with it: time 16-18 hrs, read-out: MIC100.
Series [6] has as its system Acinetobacter baumannii. The series can be described thus: Antibacterial activity against multi-drug resistant Acinetobacter baumannii H72721 assessed as inhibition of bacterial growth incubated for 16 to 18 hrs by CLSI protocol based method. Type of series: functional. The note with it: time 16-18 hrs, read-out: MIC100.
Series [7] deals with Acinetobacter baumannii. The series is described as follows: Antibacterial activity against multi-drug resistant Acinetobacter baumannii clinical isolate 12 assessed as inhibition of bacterial growth incubated for 16 to 18 hrs by CLSI protocol based method. The note with it: time 16-18 hrs, read-out: MIC100. Type of series: functional.
The subject of series [8] is Acinetobacter baumannii. The series is described as follows: Antibacterial activity against multi-drug resistant Acinetobacter baumannii clinical isolate 5 assessed as inhibition of bacterial growth incubated for 16 to 18 hrs by CLSI protocol based method. Format: functional. The note with it: time 16-18 hrs, read-out: MIC100.
Series [9] deals with Acinetobacter baumannii. The series is described as follows: Antibacterial activity against multi-drug resistant Acinetobacter baumannii clinical isolate 2 assessed as inhibition of bacterial growth incubated for 16 to 18 hrs by CLSI protocol based method. Format: functional. The note with it: time 16-18 hrs, read-out: MIC100.
For series [10], the system named is Acinetobacter baumannii. The series is described as follows: Antibacterial activity against multi-drug resistant Acinetobacter baumannii Naval-17 assessed as inhibition of bacterial growth incubated for 16 to 18 hrs by CLSI protocol based method. Type of series: functional. Conditions: time 16-18 hrs, read-out: MIC100.
For series [11], the system named is Acinetobacter baumannii. The series can be described thus: Antibacterial activity against multi-drug resistant Acinetobacter baumannii 5-109 assessed as inhibition of bacterial growth incubated for 16 to 18 hrs by CLSI protocol based method. Format: functional. The note with it: time 16-18 hrs, read-out: MIC100.
Series [12] has as its system Acinetobacter baumannii. The series can be described thus: Antibacterial activity against multi-drug resistant Acinetobacter baumannii WL-136 assessed as inhibition of bacterial growth incubated for 16 to 18 hrs by CLSI protocol based method. The note with it: time 16-18 hrs, read-out: MIC100. Format: functional.
Series [13] deals with Escherichia coli. The series is described as follows: Antibacterial activity against Escherichia coli ATCC 25922 assessed as inhibition of bacterial growth incubated for 16 to 18 hrs by CLSI protocol based method. Type of series: functional. Conditions: time 16-18 hrs, read-out: MIC100.
Series [14] deals with Acinetobacter baumannii. The series can be described thus: Antibacterial activity against multi-drug resistant Acinetobacter baumannii clinical isolate 7 assessed as inhibition of bacterial growth incubated for 16 to 18 hrs by CLSI protocol based method. Type of series: functional. Conditions: time 16-18 hrs, read-out: MIC100.
Series [15] has as its system Acinetobacter baumannii. The series is described as follows: Antibacterial activity against multi-drug resistant Acinetobacter baumannii Naval-81 assessed as inhibition of bacterial growth incubated for 16 to 18 hrs by CLSI protocol based method. Format: functional. Conditions: time 16-18 hrs, read-out: MIC100.
In series [16] the test system is Acinetobacter baumannii. The series can be described thus: Antibacterial activity against multi-drug resistant Acinetobacter baumannii BC-5 assessed as inhibition of bacterial growth incubated for 16 to 18 hrs by CLSI protocol based method. Format: functional. Conditions: time 16-18 hrs, read-out: MIC100.
In series [17] the test system is Acinetobacter baumannii. The series can be described thus: Antibacterial activity against multi-drug resistant Acinetobacter baumannii WL-487 assessed as inhibition of bacterial growth incubated for 16 to 18 hrs by CLSI protocol based method. Format: functional. The note with it: time 16-18 hrs, read-out: MIC100.
For series [18], the system named is Acinetobacter baumannii. The series can be described thus: Antibacterial activity against multi-drug resistant Acinetobacter baumannii clinical isolate 10 assessed as inhibition of bacterial growth incubated for 16 to 18 hrs by CLSI protocol based method. Format: functional. Conditions: time 16-18 hrs, read-out: MIC100.
Series [19] concerns Acinetobacter baumannii. The series can be described thus: Antibacterial activity against multi-drug resistant Acinetobacter baumannii clinical isolate 9 assessed as inhibition of bacterial growth incubated for 16 to 18 hrs by CLSI protocol based method. Format: functional. The note with it: time 16-18 hrs, read-out: MIC100.
The subject of series [20] is Acinetobacter baumannii. The series is described as follows: Antibacterial activity against multi-drug resistant Acinetobacter baumannii clinical isolate 8 assessed as inhibition of bacterial growth incubated for 16 to 18 hrs by CLSI protocol based method. Conditions: time 16-18 hrs, read-out: MIC100. Format: functional.
Series [21] deals with Acinetobacter baumannii. The series can be described thus: Antibacterial activity against multi-drug resistant Acinetobacter baumannii 5-189 assessed as inhibition of bacterial growth incubated for 16 to 18 hrs by CLSI protocol based method. Type of series: functional. Conditions: time 16-18 hrs, read-out: MIC100.
Series [22] can be described thus: Selectivity index, ratio of CC50 for cytotoxicity against African green monkey VERO cells to MIC for antibacterial activity against carbapenem-resistant Acinetobacter baumannii BAA 1605 assessed as inhibition of bacterial growth. Format: toxicity, cell-based. The note with it: read-out: Selectivity Index.
For series [23], the system named is Acinetobacter baumannii. The series is described as follows: Antibacterial activity against multi-drug resistant Acinetobacter baumannii NR-17777 assessed as inhibition of bacterial growth incubated for 16 to 18 hrs by CLSI protocol based method. Type of series: functional. The note with it: time 16-18 hrs, read-out: MIC100.
In series [24] the test system is Klebsiella pneumoniae. The series can be described thus: Antibacterial activity against Klebsiella pneumoniae BAA 1705 assessed as inhibition of bacterial growth incubated for 16 to 18 hrs by CLSI protocol based method. Type of series: functional. Conditions: time 16-18 hrs, read-out: MIC100.
For series [25], the system named is Acinetobacter baumannii. The series can be described thus: Antibacterial activity against multi-drug resistant Acinetobacter baumannii 5-032 assessed as inhibition of bacterial growth incubated for 16 to 18 hrs by CLSI protocol based method. Format: functional. Conditions: time 16-18 hrs, read-out: MIC100.
In series [26] the test system is Acinetobacter baumannii. The series is described as follows: Antibacterial activity against multi-drug resistant Acinetobacter baumannii 5-143 assessed as inhibition of bacterial growth incubated for 16 to 18 hrs by CLSI protocol based method. Type of series: functional. Conditions: time 16-18 hrs, read-out: MIC100.
The nature of series [27]: Cytotoxicity against African green monkey Vero cells assessed as reduction in cell viability incubated for 72 hrs by MTT assay. Type of series: toxicity, cell-based. Conditions: chlorocebus sabaeus. (Tetrazolium dyes change colour on reduction, which living cells bring about.)
Series [28] relates to Pseudomonas aeruginosa. The series is described as follows: Antibacterial activity against Pseudomonas aeruginosa ATCC 27853 assessed as inhibition of bacterial growth incubated for 16 to 18 hrs by CLSI protocol based method. Type of series: functional. The note with it: time 16-18 hrs, read-out: MIC100.
For series [29], the system named is Acinetobacter baumannii. The series can be described thus: Antibacterial activity against carbapenem-resistant Acinetobacter baumannii BAA 1605 assessed as inhibition of bacterial growth incubated for 16 to 18 hrs by CLSI protocol based method. Format: functional. The note with it: time 16-18 hrs, read-out: MIC100.
Series [30] concerns Acinetobacter baumannii. The series is described as follows: Antibacterial activity against Acinetobacter baumannii ATCC 17978 assessed as inhibition of bacterial growth incubated for 16 to 18 hrs by CLSI protocol based method. Format: functional. The note with it: time 16-18 hrs, read-out: MIC100.
The subject of series [31] is Acinetobacter baumannii. The series can be described thus: Antibacterial activity against multi-drug resistant Acinetobacter baumannii clinical isolate 4 assessed as inhibition of bacterial growth incubated for 16 to 18 hrs by CLSI protocol based method. Format: functional. Conditions: time 16-18 hrs, read-out: MIC100.
The subject of series [32] is Acinetobacter baumannii. The series can be described thus: Antibacterial activity against multi-drug resistant Acinetobacter baumannii clinical isolate 3 assessed as inhibition of bacterial growth incubated for 16 to 18 hrs by CLSI protocol based method. Format: functional. The note with it: time 16-18 hrs, read-out: MIC100.
Series [33] deals with Acinetobacter baumannii. The series is described as follows: Antibacterial activity against multi-drug resistant Acinetobacter baumannii clinical isolate 11 assessed as inhibition of bacterial growth incubated for 16 to 18 hrs by CLSI protocol based method. Format: functional. The note with it: time 16-18 hrs, read-out: MIC100.
Series [34] deals with Staphylococcus aureus. The series is described as follows: Antibacterial activity against Staphylococcus aureus ATCC 29213 assessed as inhibition of bacterial growth incubated for 16 to 18 hrs by CLSI protocol based method. Format: functional. The note with it: time 16-18 hrs, read-out: MIC100.
Series [35] relates to Acinetobacter baumannii. The series can be described thus: Antibacterial activity against multi-drug resistant Acinetobacter baumannii clinical isolate 6 assessed as inhibition of bacterial growth incubated for 16 to 18 hrs by CLSI protocol based method. The note with it: time 16-18 hrs, read-out: MIC100. Format: functional.
The test system of series [36] is Staphylococcus aureus. The series can be described thus: Antibacterial activity against Staphylococcus aureus. Type of series: functional.

As to `CN1C(=O)/C(=C/NNc2ccc(C#N)cc2)SC1=S`, the MIC in [1] was determined as 16 mg/L (≈ 55.1 µM).
`CCCCCCCCCCN1CCN(c2ccc3c4c(cccc24)C(=O)N(CC(O)Cn2c([N+](=O)[O-])cnc2C)C3=O)CC1` (stereo unspecified): in [2], the MIC amounted to 13 µM (≈ 7.86 µg/mL).
Compound `N#Cc1ccc(NNC(=O)c2ccc(Br)cc2)cc1` returned an MIC in [3] of 0.25 mg/L (≈ 0.791 µM).
As for `O=C(CCN1C(=O)c2cccc3cccc(c23)C1=O)NNc1ccc(F)cc1`, the MIC was determined as 2 mg/L (≈ 5.3 µM) in series [4]; 2 mg/L (≈ 5.3 µM) in [5]; 2 mg/L (≈ 5.3 µM) in series [6]; 2 mg/L (≈ 5.3 µM) in [7]; 4 mg/L (≈ 10.6 µM) in series [8]; 2 mg/L (≈ 5.3 µM) in [9]. In addition, the MIC in series [10] is 2 mg/L (≈ 5.3 µM); in [11], 4 mg/L (≈ 10.6 µM); in series [12], 2 mg/L (≈ 5.3 µM); in series [13] it was greater than 64 mg/L; in [14], 2 mg/L (≈ 5.3 µM); in series [15] it was 2 mg/L (≈ 5.3 µM). Besides, the MIC in series [16] was 1 mg/L (≈ 2.65 µM); in [17], 1 mg/L (≈ 2.65 µM); in series [18], 2 mg/L (≈ 5.3 µM); in series [19] it was 2 mg/L (≈ 5.3 µM); in series [20] it was 2 mg/L (≈ 5.3 µM); in series [21], 4 mg/L (≈ 10.6 µM). The MIC in series [23] is 4 mg/L (≈ 10.6 µM); in series [24] it was greater than 64 mg/L; in series [25], 4 mg/L (≈ 10.6 µM); in series [26] it was 2 mg/L (≈ 5.3 µM); in [28], greater than 64 mg/L; in series [29], 1 mg/L (≈ 2.65 µM). In addition, the MIC in series [30] is 1 mg/L (≈ 2.65 µM); in series [31] it was 2 mg/L (≈ 5.3 µM); in [32], 0.5 mg/L (≈ 1.32 µM); in series [33], 2 mg/L (≈ 5.3 µM); in series [34], greater than 64 mg/L; in series [35], 4 mg/L (≈ 10.6 µM). Also, the selectivity ratio in series [22] is 80. Also, the CC50 at 72 h in [27] worked out at 80 mg/L (≈ 212 µM).
Turning to `Cc1ccc2cc(C(=O)N3CCN(CCN4C(=O)c5cccc6cccc(c56)C4=O)CC3)c(=O)oc2c1`, in [36], the MIC worked out at 0.5 mg/L (≈ 1.01 µM).

Usually CC50 stands for the concentration at which the toxic effect on the cells reaches its halfway point.
